Data taken from PubChem BioAssay AID1919001 (Molecular Pharmacology Branch, DTP, NCI, 2023).
“And” between values parts separate entries of the source, which are not always exact repeats. Equal values may be shown once. Each block holds one molecule with its values, some of them ahead of it.

Test system: 699152-130-R-J1-PDC complex spheroid growth
Experiment: Anticancer human tumor 699152-130-R-J1-PDC patient-derived pancreatic carcinoma cell line growth inhibition [AhR]
Settings: for viability, T/C: stronger effect = lower value
Method in brief: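 Agents were dosed in half-log steps down from roughly clinical Cmax, or from 10 microM where Cmax was unknown, alone and with AhR antagonists. Read-out: percent test/control growth of tumor spheroids containing HUVEC and MSC stromal cells.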

[1] = curve of first compound, second compound 0.1 µM
[2] = curve of first compound, second compound 0.316 µM
[3] = curve of first compound, second compound 1 µM
[4] = curve of first compound, second compound 3.16 µM
[5] = curve of first compound, second compound 10 µM
[6] = second compound 0.1 µM, first compound 0.0316 µM
[7] = second compound 0.1 µM, first compound 0.1 µM
[8] = second compound 0.1 µM, first compound 0.316 µM
[9] = second compound 0.1 µM, first compound 1 µM
[10] = second compound 0.1 µM, first compound 3.16 µM
[11] = second compound 0.1 µM, first compound 10 µM
[12] = second compound 0.316 µM, first compound 0.0316 µM
[13] = second compound 0.316 µM, first compound 0.1 µM
[14] = second compound 0.316 µM, first compound 0.316 µM
[15] = second compound 0.316 µM, first compound 1 µM
[16] = second compound 0.316 µM, first compound 3.16 µM
[17] = second compound 0.316 µM, first compound 10 µM
[18] = second compound 1 µM, first compound 0.0316 µM
[19] = second compound 1 µM, first compound 0.1 µM
[20] = second compound 1 µM, first compound 0.316 µM
[21] = second compound 1 µM, first compound 1 µM
[22] = second compound 1 µM, first compound 3.16 µM
[23] = second compound 1 µM, first compound 10 µM
[24] = second compound 3.16 µM, first compound 0.0316 µM
[25] = second compound 3.16 µM, first compound 0.1 µM
[26] = second compound 3.16 µM, first compound 0.316 µM
[27] = second compound 3.16 µM, first compound 1 µM
[28] = second compound 3.16 µM, first compound 3.16 µM
[29] = second compound 3.16 µM, first compound 10 µM
[30] = second compound 10 µM, first compound 0.0316 µM
[31] = second compound 10 µM, first compound 0.1 µM
[32] = second compound 10 µM, first compound 0.316 µM
[33] = second compound 10 µM, first compound 1 µM
[34] = second compound 10 µM, first compound 3.16 µM
[35] = second compound 10 µM, first compound 10 µM
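Further: compound exposure lasted 7 days after spheroids had grown for 3 days.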

SMILES: O=C(C=Cc1cccc(S(=O)(=O)Nc2ccccc2)c1)NO + Cc1ccccc1N=Nc1ccc(NC(=O)c2ccnn2C)c(C)c1
IC50 [1]: > 10000 nM
IC50 [2]: > 10000 nM
IC50 [3]: > 10000 nM
IC50 [4]: > 10000 nM
IC50 [5]: > 10000 nM
viability, T/C [6]: 91.2%
viability, T/C [7]: 109%
viability, T/C [8]: 111%
viability, T/C [9]: 110%
viability, T/C [10]: 108%
viability, T/C [11]: 97.8%
viability, T/C [12]: 87.9%
viability, T/C [13]: 99.4%
viability, T/C [14]: 106%
viability, T/C [15]: 114%
viability, T/C [16]: 97.3%
viability, T/C [17]: 95.4%
viability, T/C [18]: 97.5%
viability, T/C [19]: 118%
viability, T/C [20]: 111%
viability, T/C [21]: 116%
viability, T/C [22]: 101%
viability, T/C [23]: 96.2%
viability, T/C [24]: 103%
viability, T/C [25]: 102%
viability, T/C [26]: 107%
viability, T/C [27]: 115%
viability, T/C [28]: 103%
viability, T/C [29]: 81.5%
viability, T/C [30]: 109%
viability, T/C [31]: 114%
viability, T/C [32]: 116%
viability, T/C [33]: 122%
viability, T/C [34]: 97%
viability, T/C [35]: 85.2%

SMILES: CC1COCCN1c1cc(-c2ccnn2C)c2ccnc(-c3ccn[nH]3)c2n1 (stereo not given)
viability, T/C (compound 0.00316 µM): 106% and 92.5% and 103%
viability, T/C (compound 0.01 µM): 106% and 96.9% and 109%
viability, T/C (compound 0.0316 µM): 95.6% and 95.9% and 92.5%
viability, T/C (compound 0.1 µM): 85.9% and 90.6% and 95.9%
viability, T/C (compound 0.316 µM): 72.5% and 84.8% and 77.6%
viability, T/C (compound 1 µM): 59.9% and 58.5% and 61.5%
IC50 (curve of compound): > 1000 nM

SMILES: Nc1ncn(C2CC(O)C(CO)O2)c(=O)n1 (stereo not given)
viability, T/C (compound 0.00316 µM): 93.4% and 101% and 95.4%
viability, T/C (compound 0.01 µM): 104% and 93.1% and 106%
viability, T/C (compound 0.0316 µM): 93.1% and 93% and 94.8%
viability, T/C (compound 0.1 µM): 91% and 96.5% and 87.2%
viability, T/C (compound 0.316 µM): 96.5% and 84.4% and 102%
viability, T/C (compound 1 µM): 92.9% and 87.3% and 89%
IC50 (curve of compound): > 1000 nM

SMILES: O=C(c1cc(Cc2n[nH]c(=O)c3ccccc23)ccc1F)N1CCN(C(=O)C2CC2)CC1
viability, T/C (compound 0.0316 µM): 98.3% and 101% and 99.8%
viability, T/C (compound 0.1 µM): 104% and 105% and 98.3%
viability, T/C (compound 0.316 µM): 101% and 95% and 92%
viability, T/C (compound 1 µM): 104% and 102% and 95.3%
viability, T/C (compound 3.16 µM): 98.9% and 93% and 89.2%
viability, T/C (compound 10 µM): 103% and 82.8% and 83.2%
IC50 (curve of compound): > 10000 nM

Second part, led by results:

IC50 (curve of compound): 319 nM and 179 nM and 444 nM
SMILES: COc1cccc2c1C(=O)c1c(O)c3c(c(O)c1C2=O)CC(O)(C(=O)CO)CC3OC1CC(N)C(O)C(C)O1 (stereo not given)
viability, T/C (compound 0.0316 µM): 71.1% and 70.4% and 82.5%
viability, T/C (compound 0.1 µM): 64.3% and 56.2% and 87.1%
viability, T/C (compound 0.316 µM): 48.5% and 41.1% and 55.1%
viability, T/C (compound 1 µM): 30.3% and 29.7% and 31.8%
viability, T/C (compound 3.16 µM): 3.77% and 2.01% and 2.55%
viability, T/C (compound 10 µM): 8.13% and 7.62% and 11.8%

IC50 [1]: > 10000 nM
IC50 [2]: > 10000 nM
IC50 [3]: > 10000 nM
IC50 [4]: > 10000 nM
IC50 [5]: < 31.6 nM
SMILES: CC1(C)CCC(CN2CCN(c3ccc(C(=O)NS(=O)(=O)c4ccc(NCC5CCOCC5)c([N+](=O)[O-])c4)c(Oc4cnc5[nH]ccc5c4)c3)CC2)=C(c2ccc(Cl)cc2)C1 + Cc1cncc(-c2nc(NCCc3c[nH]c4ccccc34)c3ncn(C(C)C)c3n2)c1
viability, T/C [6]: 101%
viability, T/C [7]: 111%
viability, T/C [8]: 124%
viability, T/C [9]: 106%
viability, T/C [10]: 109%
viability, T/C [11]: 97.4%
viability, T/C [12]: 114%
viability, T/C [13]: 110%
viability, T/C [14]: 105%
viability, T/C [15]: 107%
viability, T/C [16]: 114%
viability, T/C [17]: 121%
viability, T/C [18]: 127%
viability, T/C [19]: 134%
viability, T/C [20]: 127%
viability, T/C [21]: 117%
viability, T/C [22]: 120%
viability, T/C [23]: 128%
viability, T/C [24]: 121%
viability, T/C [25]: 127%
viability, T/C [26]: 130%
viability, T/C [27]: 123%
viability, T/C [28]: 125%
viability, T/C [29]: 128%
viability, T/C [30]: 19.8%
viability, T/C [31]: 18.4%
viability, T/C [32]: 23.2%
viability, T/C [33]: 23.7%
viability, T/C [34]: 27.9%
viability, T/C [35]: 22.8%

IC50 (curve of compound): 1510 nM and 832 nM and 802 nM
SMILES: NS(=O)(=O)OCC1CC(n2ccc3c(NC4CCc5ccccc54)ncnc32)CC1O (stereo not given)
viability, T/C (compound 0.0316 µM): 96.1% and 125% and 117%
viability, T/C (compound 0.1 µM): 123% and 111% and 125%
viability, T/C (compound 0.316 µM): 127% and 113% and 129%
viability, T/C (compound 1 µM): 67.1% and 38% and 43.2%
viability, T/C (compound 3.16 µM): 18.2% and 19.7% and 24.9%
viability, T/C (compound 10 µM): 20.3% and 24% and 29.6%
